Legend:
Type in all cases: functional, organism-based
Tribolium castaneum [1] = assay: Antifeedant activity against adult of Tribolium castaneum (red flour beetle) after 3 days
Tribolium castaneum [2] = assay: Antifeedant activity against larvae of Tribolium castaneum (red flour beetle) after 3 days
Sitophilus zeamais = assay: Antifeedant activity against adult of Sitophilus zeamais after 3 days

Structure (SMILES): C/C=C(\C)C(=O)O[C@H]1C[C@@H](OC(C)=O)[C@@]2(C(=O)OC)CO[C@H]3[C@@H](O)[C@@](C)([C@]45O[C@@]4(C)[C@@H]4C[C@H]5O[C@@H]5OC=C[C@@]54O)[C@H]4[C@]1(CO[C@]4(O)C(=O)OC)[C@@H]32 [AZADIRACHTIN A]
- EC50 (Tribolium castaneum [1]): 57.6 ppm
- EC50 (Tribolium castaneum [2]): 47.9 ppm
- EC50 (Sitophilus zeamais): 91.7 ppm

Structure (SMILES): CC(=O)O[C@@H]1C[C@H](O)[C@@]23CO[C@@H](O)[C@]1(C)[C@@H]2C[C@@H](O)[C@]1(C)[C@@H]3C(=O)[C@H](OC(C)=O)[C@@]2(C)[C@H](c3ccoc3)C[C@H]3O[C@]321 [TOOSENDANIN]
- EC50 (Tribolium castaneum [1]): 66 ppm
- EC50 (Tribolium castaneum [2]): 48 ppm
- EC50 (Sitophilus zeamais): 100 ppm

— ChEMBL document CHEMBL3046561, “Feeding deterrents from Dictamnus dasycarpus Turcz against two stored-product insects” (J Agric Food Chem, 2002)
